What was measured:
Conditions in all cases: 48 h
[1] = tested on: SEM cells; assay: AUC of viability dose-response curve (% viability x log10 dose units); higher = less sensitive
Outline: (§1)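 Over 48 h at 37°C, leukemia cells in 1536-well plates (500 or 1000 cells/well), adapted to each medium, received library compounds in DMSO at 11 threefold doses from 47 μM to 0.79 nM. CellTiter-Glo One luminescence, normalised per plate to DMSO and cell-free wells, was fitted by a four-parameter log-logistic function of log10 dose. The area under the curve was then integrated by trapezoidal rule, after scaling curves above full viability and removing those that failed quality control.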

[2] = tested on: P12-Ichikawa; assay: as above
Outline: as §1

[3] = tested on: NOMO1; assay: as above
Outline: as §1

[4] = tested on: SEM cells; assay: cell viability relative to DMSO control; higher = less cytotoxic
Outline: (§2)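 Three leukemia lines were tested: NOMO1 and SEM at 500 cells/well and P12-Ichikawa at 1000 cells/well. Each was adapted for at least four passages in each medium and seeded in 5 μl in 1536-well plates, and library compounds in DMSO were pin-dosed from 47 μM to 0.79 nM in 11 threefold steps. After 48 h at 37°C, CellTiter-Glo One luminescence was read. Viability is a percentage relative to DMSO wells on each plate, with cell-free wells as background.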

[5] = tested on: P12-Ichikawa; assay: as above
Outline: as §2

[6] = tested on: NOMO1; assay: as above
Outline: as §2

NC(=O)N/N=C/c1ccc([N+](=O)[O-])o1
AUC of viability dose-response curve
Conditions	[1]	[2]	[3]
HPLM + 10% dialyzed FBS	472	470	455
RPMI 5 mM glucose + 10% FBS	453	435	441
RPMI 5 mM glucose + 10% dialyzed FBS	467	470	434

cell viability [%], [4]
Conditions	HPLM + 10% dialyzed FBS	RPMI 5 mM glucose + 10% FBS
0.000781 µM	104	121
0.00234 µM	120	133
0.00702 µM	101	123
0.0211 µM	124	129
0.0632 µM	125	137
0.19 µM	122	142
0.569 µM	109	116
1.71 µM	122	140
5.12 µM	112	139
15.4 µM	126	161
46.1 µM	109	120

C[C@]12CCC3c4ccc(O)cc4CCC3C1CCC2=O (stereo partly specified)
AUC of viability dose-response curve
Conditions	HPLM + 10% dialyzed FBS	RPMI 5 mM glucose + 10% FBS	RPMI 5 mM glucose + 10% dialyzed FBS
[2]	441	447	395
[3]	429	424	420

cell viability [%]
Conditions	[4]	[5]	[6]
HPLM + 10% dialyzed FBS, 0.000781 µM	70.1	92	102
HPLM + 10% dialyzed FBS, 0.00234 µM	81.6	95.3	102
HPLM + 10% dialyzed FBS, 0.00702 µM	88.8	101	106
HPLM + 10% dialyzed FBS, 0.0211 µM	84.5	98.9	103
HPLM + 10% dialyzed FBS, 0.0632 µM	91.4	102	107
HPLM + 10% dialyzed FBS, 0.19 µM	73.6	97.9	91.9
HPLM + 10% dialyzed FBS, 0.569 µM	62.2	84.6	86.2
HPLM + 10% dialyzed FBS, 1.71 µM	77.8	94	81.6
HPLM + 10% dialyzed FBS, 5.12 µM	71.7	90.2	93
HPLM + 10% dialyzed FBS, 15.4 µM	42.2	73.7	78.2
HPLM + 10% dialyzed FBS, 46.1 µM	58.9	83.9	79.9
RPMI 5 mM glucose + 10% FBS, 0.000781 µM	94	88.2	92.2
RPMI 5 mM glucose + 10% FBS, 0.00234 µM	92.3	95.4	91.7
RPMI 5 mM glucose + 10% FBS, 0.00702 µM	96.3	96.8	92.3
RPMI 5 mM glucose + 10% FBS, 0.0211 µM	104	103	85.7
RPMI 5 mM glucose + 10% FBS, 0.0632 µM	88.9	102	87.7
RPMI 5 mM glucose + 10% FBS, 0.19 µM	106	100	88.2
RPMI 5 mM glucose + 10% FBS, 0.569 µM	82	98.8	92.4
RPMI 5 mM glucose + 10% FBS, 1.71 µM	80.7	95.5	90.8
RPMI 5 mM glucose + 10% FBS, 5.12 µM	81.2	87.4	96.1
RPMI 5 mM glucose + 10% FBS, 15.4 µM	64.6	72.6	76
RPMI 5 mM glucose + 10% FBS, 46.1 µM	85	83.9	79.6
RPMI 5 mM glucose + 10% dialyzed FBS, 0.000781 µM	103	86.9	82.1
RPMI 5 mM glucose + 10% dialyzed FBS, 0.00234 µM	95.4	93.6	90.5
RPMI 5 mM glucose + 10% dialyzed FBS, 0.00702 µM	98.4	86.2	91.7
RPMI 5 mM glucose + 10% dialyzed FBS, 0.0211 µM	103	87	92.8
RPMI 5 mM glucose + 10% dialyzed FBS, 0.0632 µM	116	87.7	96.4
RPMI 5 mM glucose + 10% dialyzed FBS, 0.19 µM	99.6	88.4	86.5
RPMI 5 mM glucose + 10% dialyzed FBS, 0.569 µM	80.7	97.9	86.1
RPMI 5 mM glucose + 10% dialyzed FBS, 1.71 µM	82.8	80.7	84.4
RPMI 5 mM glucose + 10% dialyzed FBS, 5.12 µM	93.2	72.8	89
RPMI 5 mM glucose + 10% dialyzed FBS, 15.4 µM	35.6	54.4	88.6
RPMI 5 mM glucose + 10% dialyzed FBS, 46.1 µM	71.4	66.4	81.1

Source: the supplement of paper PMC11451515
